Experimental data from US20230027198A1 (The Rockefeller University, priority 2019, published 2023).

Target: T1, ENL YEATS domain (6×HIS ENL YEATS Domain) binding to H3K9cr peptide (Homo sapiens, UniProt Q03111)
T1 construct: aa1-150; EpiCypher, 15-0069; purchased EpiCypher 15-0069
T1 sequence (Q03111 1-150): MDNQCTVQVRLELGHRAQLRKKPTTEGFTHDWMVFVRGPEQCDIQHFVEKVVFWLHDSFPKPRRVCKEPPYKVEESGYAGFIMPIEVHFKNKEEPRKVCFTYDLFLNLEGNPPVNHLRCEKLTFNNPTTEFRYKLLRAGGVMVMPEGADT
Test: TR-FRET ENL Screening Assay, FRET Assay Protocol 1
Conditions: H3K9cr peptide (aa1-20)
Experimental: Compounds of the invention were dissolved in DMSO at a concentration of 3 mM with subsequent dilutions in assay buffer (50 mM HEPES PH7.0, 150 mM NaCl, 0.05% BSA, 0.2% Pluronic F-127) such that the assay contained 1% DMSO. […] Low control (LC) wells received 5 uL of assay buffer instead of ENL protein. […] Compound concentration response curves were performed in duplicate over the concentration range of 0.15 nM-30 uM. The response at each compound concentration minus the LC value was converted to percent inhibition of the vehicle control group response (HC-LC). The relationship between the % inhibition and the compound concentration was analyzed using a four parameter logistic equation to estimate lower and upper asymptotes, the compound concentration producing 50% inhibition (IC50 value) and the slope at the mid-point location.

| Structure (SMILES) | IC50 |
| --- | --- |
| C[C@H]1CCCN1Cc1cc2ncc(NC(=O)c3ccc(-c4cc[nH]n4)cc3F)cc2[nH]1 [Example 41] | 410 nM |
| C[C@H]1CCCN1Cc1cc2cnc(NC(=O)c3ccc4nnccc4c3)cc2[nH]1 [Example 39] | 368 nM |
| C[C@H]1CCCN1Cc1cc2cnc(NC(=O)c3ccc4cc[nH]c(=O)c4c3)cc2[nH]1 [Example 25] | 395 nM |
| Cc1cnnc(-c2ccc(C(=O)Nc3cc4[nH]c(CN5CCC[C@@H]5C)cc4cn3)c(F)c2)c1 [Example 36] | 669 nM |
| C[C@H]1CCCN1Cc1cc2cnc(NC(=O)c3ccc4nc(N)ncc4c3)cc2[nH]1 [Example 59] | 513 nM |
| C[C@H]1CCCN1Cc1cc2cnc(NC(=O)c3nc4ccc(O)cc4[nH]3)cc2[nH]1 [Example 63] | 1960 nM |
| C[C@H]1CCCN1Cc1cc2cnc(NC(=O)c3ccc4c(c3)CNC(=O)C4)cc2[nH]1 [Example 26] | 435 nM |
| Cc1cnc(-c2ccc(C(=O)Nc3cc4[nH]c(CN5CCC[C@@H]5C)cc4cn3)c(F)c2)nc1 [Example 14, 2-fluoro-4-(5-methylpyrimidin-2-yl)-N-(2-[[(2S)-2-methylpyrrolidin-1-yl]methyl]-1H-pyrrolo[3,2-c]pyridin-6-yl)benzamide] | 1420 nM |
| C[C@H]1CCCN1Cc1cc2cnc(NC(=O)c3ccc(-c4cc[nH]n4)cc3F)cc2[nH]1 [Example 43, 2-fluoro-N-(2-[[(2S)-2-methylpyrrolidin-1-yl]methyl]-1H-pyrrolo[3,2-c]pyridin-6-yl)-4-(1H-pyrazol-3-yl)benzamide] | 699 nM |
| COCC1CCN(Cc2cc3cnc(NC(=O)c4ccc5c(cnn5C)c4)cc3[nH]2)C1 (centres unmarked) [Example 9] | 283 nM |
| CC(c1ccncc1)c1ccc(C(=O)Nc2cc3[nH]c(CN4CCC[C@@H]4C)cc3cn2)cc1 (stereo partly drawn) [Example 29, N-(2-[[(2S)-2-methylpyrrolidin-1-yl]methyl]-1H-pyrrolo[3,2-c]pyridin-6-yl)-4-[1-(pyridin-4-yl)ethyl]benzamide] | 527 nM |
| C[C@H]1CCCN1Cc1cc2cnc(NC(=O)c3ccc4c(c3)OCC(=O)N4C)cc2[nH]1 [Example 17, 4-methyl-N-(2-[[(2S)-2-methylpyrrolidin-1-yl]methyl]-1H-pyrrolo[3,2-c]pyridin-6-yl)-3-oxo-2H-1,4-benzoxazine-7-carboxamide] | 441 nM |
| C[C@H]1CCCN1Cc1cc2cnc(NC(=O)c3ccc4c(c3)OCC(=O)N4)cc2[nH]1 [Example 16, N-(2-[[(2S)-2-methylpyrrolidin-1-yl]methyl]-1H-pyrrolo[3,2-c]pyridin-6-yl)-3-oxo-2,4-dihydro-1,4-benzoxazine-7-carboxamide] | 1160 nM |

The next lines start with the values.

| IC50 | Structure (SMILES) |
| --- | --- |
| 152 nM | Cc1n[nH]c2ccc(C(=O)Nc3cc4[nH]c(CN5CC6(C5)CC(F)(F)C6)cc4cn3)cc12 [Example 109] |
| 177 nM | C[C@H]1CCCN1Cc1cc2cnc(NC(=O)c3ccc4c(N)nn(C5CC5)c4c3)cc2[nH]1 [Example 84] |
| 170 nM | Cc1n[nH]c2ccc(C(=O)Nc3cnc4cc(CN5CCC[C@@H]5C)[nH]c4c3)c(F)c12 [compound 106] |
| 622 nM | Cc1c[nH]c2cc(C(=O)Nc3cc4[nH]c(CN5CCC[C@@H]5C)cc4cn3)ccc12 [Example 68] |
| 137 nM | C[C@H]1CCCN1Cc1cc2cnc(NC(=O)c3ccc4cnccc4c3)cc2[nH]1 [Example 65] |
| 1900 nM | C[C@H]1CCCN1Cc1cc2cnc(NC(=O)c3ccc(C(=N)N)cc3)cc2[nH]1 [Example 80] |
| 330 nM | CC(=O)Nc1nn(C)c2cc(C(=O)Nc3cc4[nH]c(CN5CCC[C@@H]5C)cc4cn3)ccc12 [Example 87, 3-acetamido-1-methyl-N-(2-[[(2S)-2-methylpyrrolidin-1-yl]methyl]-1H-pyrrolo[3,2-c]pyridin-6-yl)indazole-6-carboxamide] |
| 276 nM | Cc1nn(C(F)F)c2ccc(C(=O)Nc3cc4[nH]c(CN5CCC[C@@H]5C)cc4cn3)cc12 [Example 102] |
| 364 nM | COCCn1cc(-c2ccc(C(=O)Nc3cc4[nH]c(CN5CCC[C@@H]5C)cc4cn3)c(F)c2)cn1 [Example 72] |
| 2340 nM | C[C@H]1CCCN1Cc1cc2cnc(NC(=O)c3ccc(-n4ccnc4)cn3)cc2[nH]1 [Example 75] |
